Measured values: patent US20050171358A1 (priority 2002, published 2005)

How the values were obtained:
[1] = test system: Pyricularia oryzae; format: in vivo; conditions: 200 ppm spray on rice (Koshihikari, 3 leaf stage), inoculated next day; lesion numbers on third leaves after 7 days in green house, graded by Table 5
[2] = test system: Colletotrichum lagenarium; conditions: 200 ppm spray on cucumber (3 leaf stage), inoculated next day; lesion numbers on first and second leaves after 7 days in green house, graded by Table 5

| SMILES | Evaluation (effect for rice blast) [1] | Evaluation (effect for cucumber anthracnose) [2] |
| --- | --- | --- |
| COc1ccc(C(=O)NCc2cc(COc3ccc(C(C)=O)cc3)no2)cc1 [IV-87, N-{[3-(4-acetylphenyl)oxymethyl-5-isoxazolyl]methyl}-4-methoxybenzamide] | 5 (0) | 4 (1˜5) |
| CCCc1cc(CNC(=O)c2ccc(OC)cc2)on1 [III-245, N-[(3-propyl-5-isoxazolyl)methyl]-4-methoxybenzamide] | 5 (0) | 5 (0) |
| COc1ccc(C(=O)NCc2cc(COc3ccccc3C)no2)cc1 [IV-47, N-{[3-(2-methylphenyl)oxymethyl-5-isoxazolyl]methyl}-4-methoxy benzamide] | 5 (0) | 5 (0) |
| COc1ccc(C(=O)NCc2cc(COc3cccc(OC)c3)no2)cc1 [IV-55, N-{[3-(3-methoxyphenyl)oxymethyl-5-isoxazolyl]methyl}-4-methoxybenzamide] | 4 (1˜5) | 4 (1˜5) |
| Cc1ccccc1C(=O)NCc1cc(C(=O)Nc2ccccc2)no1 [IV-117, N-[(3-phenylaminocarbonyl-5-isoxazolyl)methyl]-2-methylbenzamide] | 4 (1˜5) | 4 (1˜5) |
| COc1ccc(-c2cc(CNC(=O)c3ccccc3)on2)cc1 [III-17, N-{[3-(4-methoxyphenyl)-5-isoxazolyl]methyl}benzamide] | 5 (0) | 5 (0) |
| COc1ccc(C(=O)NCc2cc(COc3ccccn3)no2)cc1 [IV-92, N-{[3-(2-pyridyl)oxymethyl-5-isoxazolyl]methyl}-4-methoxybenzamide] | 4 (1˜5) | 3 (6˜10) |
| COc1ccc(C(=O)NCc2cc(C(=O)Nc3ccccc3C#N)no2)cc1 [IV-112, N-{[3-(2-cyanophenyl)aminocarbonyl-5-isoxazolyl]methyl}-4-methoxybenzamide] | 2 (11˜20) | 3 (6˜10) |
| O=C(NCc1cc(COc2ccccc2)no1)c1ccccc1 [IV-44, N-[(3-phenoxymethyl-5-isoxazolyl)methyl]benzamide] | 5 (0) | 5 (0) |
| O=C(NCc1cc(C(=O)Nc2ccccc2)no1)c1ccccc1 [IV-113, N-[(3-phenylaminocarbonyl-5-isoxazolyl)methyl]benzamide] | 4 (1˜5) | 4 (1˜5) |
| O=C(NCc1cc(-c2ccccc2)no1)c1ccc(F)cc1 [III-121, N-[(3-phenyl-5-isoxazolyl)methyl]-4-fluorobenzamide] | 5 (0) | 5 (0) |
| COc1ccc(C(=O)NCc2cc(-c3ccc(C)cc3)no2)cc1 [III-12, N-{[3-(4-tolyl)-5-isoxazolyl]methyl}-4-methoxybenzamide] | 5 (0) | 5 (0) |
| Cc1ccc(C(=O)NCc2cc(-c3cccnc3)no2)cc1 [III-218, N-{[3-(3-pyridyl)-5-isoxazolyl]methyl}-4-methylbenzamide] | 3 (6˜10) | 4 (1˜5) |
| O=C(NCc1cc(C2CCCCC2)no1)c1ccccc1 [III-6, N-[(3-cyclohexyl-5-isoxazolyl)methyl]benzamide] | 5 (0) | 4 (1˜5) |
| COc1ccc(C(=O)NCc2cc(/C=N/OCc3ccccc3)no2)cc1 [IV-124, N-[(3-benzyloxyiminomethyl-5-isoxazolyl)methyl]-4-methoxybenzamide] | 5 (0) | 5 (0) |
| Cc1ccc(C(=O)NCc2cc(Cc3cccc(C)c3)no2)cc1 [IV-11, N-{[3-(3-methylbenzyl)-5-isoxazolyl]methyl}-4-methylbenzamide] | 5 (0) | 5 (0) |
| COc1ccc(C(=O)NCc2cc(COc3ccc(F)cc3)no2)cc1 [IV-59, N-{[3-(4-fluorophenyl)oxymethyl-5-isoxazolyl]methyl}-4-methoxybenzamide] | 5 (0) | 5 (0) |
| CO/N=C/c1ccc(OCc2cc(CNC(=O)c3ccc(OC)cc3)on2)cc1 [IV-75] | 2 (11˜20) | 3 (6˜10) |

| SMILES | Evaluation (effect for rice blast) [1] | Evaluation (effect for cucumber anthracnose) [2] |
| --- | --- | --- |
| O=C(NCc1cc(COC2=CC(=O)C3CCC2C3)no1)NC1CCCCC1 (stereo not drawn) [II-112, 3-[3-(bicyclo[3.2.1]oct-2-en-4-on-2-yl)oxymethyl-5-isoxazolyl]methyl-1-cyclohexylurea] | 3 (6˜10) | 3 (6˜10) |
| CCCc1cc(CNC(=O)c2ccc(Cl)cc2)on1 [III-263, N-[(3-propyl-5-isoxazolyl)methyl]-4-chlorobenzamide] | 5 (0) | 5 (0) |
| O=C(NCc1cc(-c2cccc(Cl)c2)no1)Oc1ccccc1 [I-29, phenyl{[3-(3-chlorophenyl)-5-isoxazolyl)methyl]carbamate] | 5 (0) | 5 (0) |
| CC(C)(NC(=O)NCc1cc(-c2ccccc2)no1)c1ccccc1 [I-45] | 4 (1˜5) | 4 (1˜5) |
| COc1ccc(-c2cc(CNC(=O)Oc3ccccc3)on2)cc1 [I-26, phenyl{[3-(4-methoxyphenyl)-5-isoxazolyl]methyl}carbamate] | 5 (0) | 5 (0) |
| COc1ccc(-c2cc(CNC(=O)c3ccc(C)cc3)on2)cc1OC [III-68, N-{[3-(3,4-dimethoxyphenyl)-5-isoxazolyl]methyl}-4-methylbenzamide] | 5 (0) | 5 (0) |
| Cc1ccc(C(=O)NCc2cc(-c3ccc([S+](C)[O-])cc3)no2)cc1 (stereo not drawn) [III-27, N-{[3-(4-methanesulfinylphenyl)-5-isoxazolyl]methyl}-4-methylbenzamide] | 5 (0) | 5 (0) |
| COc1ccc(C(=O)NCc2cc(COc3c(F)cccc3F)no2)cc1 [IV-86, N-{[3-(2,6-difluorophenyl)oxymethyl-5-isoxazolyl]methyl}-4-methoxybenzamide] | 5 (0) | 5 (0) |
| Cc1ccc(C(=O)NCc2cc(-c3ccc(C)cc3C)no2)cc1 [III-65, N-{[3-(2,4-dimethylphenyl)-5-isoxazolyl]methyl}-4-methylbenzamide] | 5 (0) | 5 (0) |
| CC(C)Cc1cc(CNC(=O)c2ccc(Cl)cc2Cl)on1 [III-253, N-[(3-isobutyl-5-isoxazolyl)methyl]-2,4-dichlorobenzamide] | 5 (0) | 5 (0) |
| O=C(NCc1cc(-c2ccccc2)no1)c1ccc(C(F)(F)F)cc1 [III-130, N-[(3-phenyl-5-isoxazolyl)methyl]-4-trifluoromethylbenzamide] | 4 (1˜5) | 4 (1˜5) |
| O=C(NCc1cc(COc2ccccc2)no1)NC1CCCCC1 [II-104, 3-(3-phenoxymethyl-5-isoxazolyl)methyl-1-cyclohexylurea] | 5 (0) | 5 (0) |
| O=C(NCc1cc(-c2ccccc2)no1)c1ccc(Cl)cc1 [III-124, N-[(3-phenyl-5-isoxazolyl)methyl]-4-chlorobenzamide] | 5 (0) | 4 (1˜5) |
| Cc1ccc(-c2cc(CNC(=O)NC3CCCCC3)on2)cc1 [II-9, 1-{[3-(4-tolyl)-5-isoxazolyl]methyl}-3-cyclohexylurea] | 5 (0) | 5 (0) |
| CCCC(C)c1cc(CNC(=O)c2ccc(OC)cc2)on1 (stereo not drawn) [III-246, N-[(3-sec-pentyl-5-isoxazolyl)methyl]-4-methoxybenzamide] | 3 (6˜10) | 3 (6˜10) |
| O=C(NCc1cc(CBr)no1)c1ccc(Cl)cc1Cl [III-275, N-[(3-bromomethyl-5-isoxazolyl)methyl]-2,4-dichlorobenzamide] | 2 (11˜20) | 2 (11˜20) |
| O=C(/C=C/c1ccccc1)NCc1cc(-c2ccccc2)no1 [III-201, (E)-N-[(3-phenyl-5-isoxazolyl)methyl]-3-phenylpropenamide] | 5 (0) | 5 (0) |
| Cc1ccc(-c2cc(CNC(=O)C3CCCC3)on2)cc1 [III-227, N-{[3-(4-tolyl)-5-isoxazolyl]methyl}cyclopentanecarboxamide] | 5 (0) | 5 (0) |
